Assay results reported in patent US20230265094A1, “RIPK1 INHIBITORS AND METHODS OF USE” (Merck Sharp & Dohme LLC, priority 2020, published 2023).
Counter-ions that a name gives are not always drawn.

Target: T1, RIPK1 (Homo sapiens, UniProt Q13546)
T1 construct: recombinant GST-RIPK1 kinase domain (residues 1-327) enzyme produced from baculovirus-transfected Sf21 cells; host or cells: baculovirus-transfected Sf21 insect cells
T1 sequence (Q13546 1-327): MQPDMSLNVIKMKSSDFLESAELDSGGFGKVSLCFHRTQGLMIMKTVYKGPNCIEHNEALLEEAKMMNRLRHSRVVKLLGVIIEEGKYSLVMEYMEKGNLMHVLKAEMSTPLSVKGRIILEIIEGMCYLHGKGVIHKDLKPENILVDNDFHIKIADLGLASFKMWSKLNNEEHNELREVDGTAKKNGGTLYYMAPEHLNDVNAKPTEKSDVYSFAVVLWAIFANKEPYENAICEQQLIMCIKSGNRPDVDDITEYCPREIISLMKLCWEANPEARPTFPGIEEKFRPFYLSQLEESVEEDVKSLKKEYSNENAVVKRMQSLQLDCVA
Assay: RIPK1-ADP-Glo enzymatic assay
Format: biochemical
Settings: ADP-Glo luminescent ADP detection; 25 nM GST-RIPK1 kinase domain (residues 1-327), 300 μM ATP, dephosphorylated-MBP substrate; 30 min pre-incubation, 150 min reaction
How it was run: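 GST-RIPK1 kinase domain (residues 1-327, Sf21-expressed), 25 nM final, pre-incubated 30 min with compound (10-point 1:3 series from 100000 nM), then reacted 150 min with 300 μM ATP and 3 μM dephosphorylated MBP in HEPES pH 7.3 buffer. ADP read by ADP-Glo luminescence; EC50 from four-parameter fit.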

EC50	SMILES
0.0066 µM	C[C@@H]1[C@@H](Oc2ccnc(C#N)c2)CN1C(=O)N1N=CC[C@H]1c1cc(F)cc(F)c1 [Example 2.37, 4-(((2R,3S)-1-((S)-5-(3,5-difluorophenyl)-4,5-dihydro-1H-pyrazole-1-carbonyl)-2-methylazetidin-3-yl)oxy)picolinonitrile]
0.0859 µM	C[C@@H]1[C@H](Oc2ccnc(C#N)c2)CN1C(=O)N1N=CC[C@H]1c1cc(F)cc(F)c1 [Example 2.38, 4-(((2R,3R)-1-((S)-5-(3,5-difluorophenyl)-4,5-dihydro-1H-pyrazole-1-carbonyl)-2-methylazetidin-3-yl)oxy)picolinonitrile]
0.0331 µM	N#Cc1cncc([C@@H]2CC=NN2C(=O)N2CC(Oc3ccc(F)cc3)C2)c1 [Example 2.39, (S)-5-(1-(3-(4-fluorophenoxy)azetidine-1-carbonyl)-4,5-dihydro-1H-pyrazol-5-yl)nicotinonitrile]
0.0229 µM	N#Cc1cc(C(F)(F)C2CN(C(=O)N3N=CC[C@H]3c3cc(F)cc(F)c3)C2)ccn1 [Example 2.41, (S)-4-((1-(5-(3,5-difluorophenyl)-4,5-dihydro-1H-pyrazole-1-carbonyl)azetidin-3-yl)difluoromethyl)picolinonitrile]
0.0119 µM	N#Cc1cccc(OC2CN(C(=O)N3N=CC[C@H]3c3cc(F)cc(F)c3)C2)c1 [Example 2.44, (S)-3-((1-(5-(3,5-difluorophenyl)-4,5-dihydro-1H-pyrazole-1-carbonyl)azetidin-3-yl)oxy)benzonitrile]
0.0574 µM	CCC1(Oc2ccccc2)CN(C(=O)N2N=CC[C@H]2c2cc(F)cc(F)c2)C1 [Example 2.45, (S)-(5-(3,5-difluorophenyl)-4,5-dihydro-1H-pyrazol-1-yl)(3-ethyl-3-phenoxyazetidin-1-yl)methanone]
0.0463 µM	N#Cc1cc(CC2CN(C(=O)N3N=CC[C@H]3c3cc(F)cc(F)c3)C2)ccn1 [Example 2.46, (S)-4-((1-(5-(3,5-difluorophenyl)-4,5-dihydro-1H-pyrazole-1-carbonyl)azetidin-3-yl)methyl)picolinonitrile]
0.0066 µM	N#Cc1cc(OC2CN(C(=O)N3N=CC[C@H]3c3cc(F)cc(F)c3)C2)ccn1 [Example 3.1, (S)-4-((1-(5-(3,5-difluorophenyl)-4,5-dihydro-1H-pyrazole-1-carbonyl)azetidin-3-yl)oxy)picolinonitrile, TFA Salt]
0.097 µM	Cn1c(OC2CN(C(=O)N3N=CC[C@H]3c3cc(F)cc(F)c3)C2)nc2ccccc21 [Example 3.2, (S)-(5-(3,5-difluorophenyl)-4,5-dihydro-1H-pyrazol-1-yl)(3-((1-methyl-1H-benzo[d]imidazol-2-yl)oxy)azetidin-1-yl)methanone, TFA salt]
0.0759 µM	Cc1ncnc(OC2CN(C(=O)N3N=CC[C@H]3c3cc(F)cc(F)c3)C2)c1C [Example 3.3, (S)-(5-(3,5-difluorophenyl)-4,5-dihydro-1H-pyrazol-1-yl)(3-((5,6-dimethylpyrimidin-4-yl)oxy)azetidin-1-yl)methanone, TFA salt]
0.0381 µM	CSc1nc(C)cc(OC2CN(C(=O)N3N=CC[C@H]3c3cc(F)cc(F)c3)C2)n1 [Example 3.4, (S)-(5-(3,5-difluorophenyl)-4,5-dihydro-1H-pyrazol-1-yl)(3-((6-methyl-2-(methylthio)pyrimidin-4-yl)oxy)azetidin-1-yl)methanone, TFA salt]
0.0089 µM	Cc1csc(OC2CN(C(=O)N3N=CC[C@H]3c3cc(F)cc(F)c3)C2)n1 [Example 3.5, (S)-(5-(3,5-difluorophenyl)-4,5-dihydro-1H-pyrazol-1-yl)(3-((4-methylthiazol-2-yl)oxy)azetidin-1-yl)methanone, TFA salt]
0.0182 µM	O=C(N1CC(Oc2nc3ccncc3s2)C1)N1N=CC[C@H]1c1cc(F)cc(F)c1 [Example 3.6, (S)-(5-(3,5-difluorophenyl)-4,5-dihydro-1H-pyrazol-1-yl)(3-(thiazolo[5,4-c]pyridin-2-yloxy)azetidin-1-yl)methanone, TFA salt]
1.49 µM	Cc1nc(OC2CN(C(=O)N3N=CC[C@H]3c3cc(F)cc(F)c3)C2)cc(C(C)(C)O)n1 [Example 3.7, (S)-(5-(3,5-difluorophenyl)-4,5-dihydro-1H-pyrazol-1-yl)(3-((6-(2-hydroxypropan-2-yl)-2-methylpyrimidin-4-yl)oxy)azetidin-1-yl)methanone, TFA salt]
0.105 µM	O=C(N1CC(Oc2ncc(Cn3cccn3)s2)C1)N1N=CC[C@H]1c1cc(F)cc(F)c1 [Example 3.8, (S)-(3-((5-((1H-pyrazol-1-yl)methyl)thiazol-2-yl)oxy)azetidin-1-yl)(5-(3,5-difluorophenyl)-4,5-dihydro-1H-pyrazol-1-yl)methanone, TFA salt]

More lines, now with the values behind:

SMILES	EC50
C[C@@H]1[C@@H](Oc2ccc(F)cc2)CN1C(=O)N1N=CC[C@H]1c1cc(F)cc(F)c1 [Example 2.26, ((S)-5-(3,5-difluorophenyl)-4,5-dihydro-1H-pyrazol-1-yl)((2R,3S)-3-(4-fluorophenoxy)-2-methylazetidin-1-yl)methanone]	0.0078 µM
C[C@H]1[C@@H](Oc2ccc(F)cc2)CN1C(=O)N1N=CC[C@H]1c1cc(F)cc(F)c1 [Example 2.27, ((S)-5-(3,5-difluorophenyl)-4,5-dihydro-1H-pyrazol-1-yl)((2S,3S)-3-(4-fluorophenoxy)-2-methylazetidin-1-yl)methanone]	0.0068 µM
C[C@@H]1[C@@H](Oc2ccc(F)cc2)CN1C(=O)N1N=CC[C@H]1c1ccc(Cl)cc1 [Example 2.28, ((S)-5-(4-chlorophenyl)-4,5-dihydro-1H-pyrazol-1-yl)((2R,3S)-3-(4-fluorophenoxy)-2-methylazetidin-1-yl)methanone]	0.0059 µM
Cc1ncc([C@@H]2CC=NN2C(=O)N2CC(C)(Oc3ccc(F)cc3)C2)cc1F [Example 2.30, (S)-(5-(5-fluoro-6-methylpyridin-3-yl)-4,5-dihydro-1H-pyrazol-1-yl)(3-(4-fluorophenoxy)-3-methylazetidin-1-yl)methanone]	0.0142 µM
CC1(Oc2ccc(F)cc2)CN(C(=O)N2N=CC[C@H]2c2cncc(C#N)c2)C1 [Example 2.32, (S)-5-(1-(3-(4-fluorophenoxy)-3-methylazetidine-1-carbonyl)-4,5-dihydro-1H-pyrazol-5-yl)nicotinonitrile]	0.0255 µM
CC1(Oc2ccc(F)cc2)CN(C(=O)N2N=CC[C@H]2c2cc(F)cc(F)c2)C1 [Example 2.33, (S)-(5-(3,5-difluorophenyl)-4,5-dihydro-1H-pyrazol-1-yl)(3-(4-fluorophenoxy)-3-methylazetidin-1-yl)methanone]	0.0198 µM
CC1(Oc2ccc(F)cc2)CN(C(=O)N2N=CC[C@H]2c2ccc(Cl)cc2)C1 [Example 2.34, (S)-(5-(4-chlorophenyl)-4,5-dihydro-1H-pyrazol-1-yl)(3-(4-fluorophenoxy)-3-methylazetidin-1-yl)methanone]	0.0127 µM
CC1(Oc2ccnc(C#N)c2)CN(C(=O)N2N=CC[C@H]2c2cc(F)cc(F)c2)C1 [Example 2.35, (S)-4-((1-(5-(3,5-difluorophenyl)-4,5-dihydro-1H-pyrazole-1-carbonyl)-3-methylazetidin-3-yl)oxy)picolinonitrile]	0.0242 µM
C[C@H]1[C@@H](Oc2ccnc(C#N)c2)CN1C(=O)N1N=CC[C@H]1c1cc(F)cc(F)c1 [Example 2.36, 4-(((25,3S)-1-((S)-5-(3,5-difluorophenyl)-4,5-dihydro-1H-pyrazole-1-carbonyl)-2-methylazetidin-3-yl)oxy)picolinonitrile]	0.0205 µM
O=C(N1CC(OC2CCC2)C1)N1N=CC[C@H]1c1cc(F)cc(F)c1 [Example 2.47, (S)-(3-cyclobutoxyazetidin-1-yl)(5-(3,5-difluorophenyl)-4,5-dihydro-1H-pyrazol-1-yl)methanone]	0.0927 µM
